From PubChem BioAssay (NCI)
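96-well plates; 48 h exposure; 5 concentrations. Endpoints by linear interpolation between flanking doses. Not reached: highest tested concentration assigned. Abbreviation: GI50, concentration required for 50% inhibition of growth. TGI: total growth inhibition.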 Activity calls are given as the source filed them. Rule as the data show it: active = GI50 below about 0.43 µM; inactive = the rest.

What was measured:
Experiment in all cases: NCI tumour cell line growth inhibition, 48 h
NCI-H23 lung = system: NCI-H23 lung
OVCAR-3 ovarian = system: OVCAR-3 ovarian
HOP-62 NSCLC = system: HOP-62 NSCLC
MCF7 breast = system: MCF7 breast
NCI-H460 lung = system: NCI-H460 lung
SK-MEL-2 melanoma = system: SK-MEL-2 melanoma
HS 578T breast = system: HS 578T breast
M14 melanoma = system: M14 melanoma

| Structure (SMILES) | TGI (NCI-H23 lung) | TGI (OVCAR-3 ovarian) | TGI (HOP-62 NSCLC) | TGI (MCF7 breast) | TGI (NCI-H460 lung) | TGI (SK-MEL-2 melanoma) | TGI (HS 578T breast) | TGI (M14 melanoma) | GI50 (NCI-H23 lung) | GI50 (OVCAR-3 ovarian) | GI50 (HOP-62 NSCLC) | GI50 (MCF7 breast) | GI50 (NCI-H460 lung) | GI50 (SK-MEL-2 melanoma) | GI50 (HS 578T breast) | outcome (NCI-H23 lung) | outcome (HOP-62 NSCLC) | outcome (HS 578T breast) | outcome (M14 melanoma) |
| --- | --- | --- | --- | --- | --- | --- | --- | --- | --- | --- | --- | --- | --- | --- | --- | --- | --- | --- | --- |
| Cc1ccc(C#CS(=O)(=O)C(F)(F)F)cc1 | > 100 µM | > 100 µM | > 100 µM | > 100 µM | > 100 µM | > 100 µM |  |  |  |  |  |  |  |  |  |  |  |  |  |
| NCCS(=O)(=O)O | > 100 µM | > 100 µM | > 100 µM | > 100 µM | > 100 µM | > 100 µM | > 100 µM | > 100 µM |  |  |  |  |  |  |  |  |  |  |  |
| CC(=O)c1[nH]c(Nc2ccc(C)cc2)c(C(=S)Nc2ccccc2)c1N | 42.8 µM | 35.5 µM | 42.1 µM | 30.6 µM | 31.9 µM | 31.9 µM | 52.3 µM | 36.4 µM |  |  |  |  |  |  |  |  |  |  |  |
| O=Cc1c(Br)[nH]c2ccccc12 | > 100 µM | > 100 µM | > 100 µM | > 100 µM | > 100 µM | > 100 µM |  |  |  |  |  |  |  |  |  |  |  |  |  |
| O=C(c1ccccc1O)c1cc(-c2ncc3c(=O)c4ccccc4oc3n2)c(-c2ccccc2O)[nH]c1=O | 50.1 µM | 62.4 µM | 52.6 µM | 34.2 µM | 60.9 µM | 46.3 µM |  |  |  |  |  |  |  |  |  |  |  |  |  |
| N#Cc1ccc(C2Oc3ccc(Cl)cc3C=C2[N+](=O)[O-])cc1 (stereo not given) | 3.23 µM | 3.04 µM | 3.8 µM | 3.14 µM | 5.18 µM | 4.09 µM | 47.6 µM | 2.73 µM |  |  |  |  |  |  |  |  |  |  |  |
| O=C(Nc1ccc(Sc2ccc(N=Nc3c(O)c(S(=O)(=O)O)cc4cc(S(=O)(=O)O)ccc34)cc2)cc1)c1ccc(N=Nc2c(O)c(S(=O)(=O)O)cc3cc(S(=O)(=O)O)ccc23)cc1 | 61.2 µM | 54.9 µM | > 100 µM |  | 27.7 µM | 96.8 µM |  | 91.8 µM |  |  |  |  |  |  |  |  |  |  |  |
| C[N+]1([O-])[C@H]2CC(OC(=O)[C@H](CO)c3ccccc3)C[C@H]1[C@H]1O[C@H]12 (stereo not given in full) | > 100 µM | > 100 µM | > 100 µM | > 100 µM |  | > 100 µM | > 100 µM | > 100 µM |  |  |  |  |  |  |  |  |  |  |  |
| COc1ccc([C@H]2c3cc4c(cc3OC(O)(CO)[C@H]2C(=O)O)OCO4)c(OC)c1 (stereo not given in full) (tested in a mixture with another compound) | > 100 µM | > 100 µM | > 100 µM |  | > 100 µM | > 100 µM |  | > 100 µM |  |  |  |  |  |  |  |  |  |  |  |
| CCOC(=O)C1=C(c2ccccc2)C12N(Cc1ccccc1)C(=O)C2(c1ccccc1)c1ccccc1 (stereo not given) | > 100 µM | > 100 µM | > 100 µM | > 100 µM | > 100 µM | 80 µM | > 100 µM | > 100 µM |  |  |  |  |  |  |  |  |  |  |  |
| O=NN1C(c2ccccc2)CCCC1c1ccccc1 (stereo not given) | > 100 µM | > 100 µM | > 100 µM | > 100 µM | > 100 µM | > 100 µM |  |  |  |  |  |  |  |  |  |  |  |  |  |
| COc1cc(/C(=C2/O[C@@H]([C@H]3COC(C)(C)O3)[C@H]3OC(C)(C)O[C@@H]23)c2ccc3c(c2)OCO3)cc(OC)c1OC | > 25 µM | > 25 µM | > 25 µM | > 25 µM | > 25 µM | > 25 µM | > 25 µM |  | > 25 µM | > 25 µM | > 25 µM | > 25 µM | > 25 µM | > 25 µM | > 25 µM |  |  |  |  |
| O=P(O)(O)CN1CCNCCN(CP(=O)(O)O)CCN(CP(=O)(O)O)CCNCC1 |  |  |  |  |  |  |  |  |  |  |  | 99900 µM |  |  |  | inactive | inactive | inactive | inactive |
| O=C1c2cc3c(cc2CC1Cc1ccc2c(c1)CCC2)CCC3 (stereo not given) | > 100 µM | > 100 µM | > 100 µM | > 100 µM | > 100 µM | > 100 µM | > 100 µM | > 100 µM |  |  |  |  |  |  |  |  |  |  |  |
| O=C(c1ccccc1)c1c(C(F)(F)F)n([O-])c2cc(F)c(F)cc2[n+]1=O | 0.789 µM | 1.16 µM | 2.26 µM | 1.71 µM | 8.53 µM | 4.44 µM | 2.48 µM | 1.49 µM |  |  |  |  |  |  |  |  |  |  |  |
| O=C(CSCC(=O)N/N=C\c1ccccc1F)N/N=C\c1ccccc1F | > 100 µM | > 100 µM |  | > 100 µM | > 100 µM | > 100 µM | > 100 µM | > 100 µM |  |  |  |  |  |  |  |  |  |  |  |
| CCCCOc1ccc2c(c1)CC[C@@H]1[C@@H]2CC[C@]2(C)C(=O)N(CCCC)C(=O)C[C@@H]12 | > 100 µM | > 100 µM | > 100 µM | > 100 µM | > 100 µM | > 100 µM | > 100 µM | > 100 µM |  |  |  |  |  |  |  |  |  |  |  |
| COc1cc(-c2nc3cc(Cl)c(Cl)cc3[nH]2)ccc1OCC(=O)N=Nc1c(O)[nH]c2ccc(Cl)cc12 | 3.09 µM | 1.57 µM | 1.98 µM |  |  | 2.93 µM | 3.71 µM |  | 0.489 µM | 0.446 µM | 0.455 µM |  |  | 1.28 µM | 1.04 µM |  |  |  |  |
